Laboratory results reported in PMC11272598, “RG7774 (Vicasinabin), an orally bioavailable cannabinoid receptor 2 (CB2R) agonist, decreases retinal vascular permeability, leukocyte adhesion, and ocular inflammation in animal models” (Frontiers in Pharmacology, 2024).

Tests used:
Mouse CB1R = Mouse CB1R (Mus musculus, UniProt P47746); assay: Competitive binding assay in mouse brain membranes, [^3H]-CP55940; parameters: mouse brain membranes expressing endogenous CB1R; from tissue; host or cells: mouse brain membranes; details: RG7774 10 µM; read-out: Mean ± SEM % inhibition of control, Mouse CB1R (competitive binding assay)
Protocol: Mouse brain was resuspended in 2 mM Tris–EDTA, 320 mM sucrose, 5 mM MgCl2 (pH 7.4), homogenized using a glass potter, and centrifuged 3 times, each at 1000 g for 10 min.

laser-induced CNV = assay: Laser-induced CNV in rats, fluorescein angiography lesion area; assay type: in vivo, Brown Norway rats; details: CNV rat model, ED50 0.037 mg/kg
Protocol: Male Brown Norway rats (Charles River, Sulzfeld, Germany) aged 9 weeks and weighing 200 g on arrival ([…] after 1 week) were housed in individually ventilated GR1800 cages (Tecniplast, Pontremoli, Italy) with a maximum density of n = 5 rats per cage with the same litter and sex. The room was kept at 20°C–24°C with 50%–60% humidity and a 12/12 h light-dark cycle with ad libitum access to standard diet and water.
RG7774 was formulated (w/w) in 0.1% hydroxyethyl cellulose, 1% polysorbate 80, 0.18% methylparaben, 0.02% propylparaben, and 0.21% citric acid monohydrate, adjusted to pH 6 using NaOH. Three studies with 20 rats each were performed. […] The wellbeing of the animals was monitored daily, and free access was granted to food and water. […] Body weight was continuously monitored, and oral doses of RG7774 were adjusted accordingly. […]
Rats were anesthetized 1 week after laser injury using fentanyl 0.005 mg/kg, medetomidine 0.15 mg/kg, and midazolam 2 mg/kg. […] Retinal vessels and neovascularization were visualized by switching to fluorescence mode.
Images taken by the Heidelberg Spectralis HRA system were manually analyzed for the degree of CNV within the lesion (fluorescent) area and the affected area (in mm^2) was calculated using the Heidelberg Eye Explorer imaging program (Heidelberg Spectralis HRA, Heidelberg Engineering, Heidelberg, Germany). […]

Human FAAH = molecular target: T1, Human FAAH (Homo sapiens, UniProt O00519); assay: Human FAAH assay; assay type: biochemical; details: RG7774 10 µM; read-out: Mean ± SEM % inhibition of control, Human FAAH
T1 construct: purchased Cayman Chemical Company
Protocol: Mouse brain was homogenized in 50 mM Tris-HCl (pH 7.4) using a glass potter, centrifuged at 1000 g for 10 min, and the pellet was discarded. The supernatant (50 µg) was incubated with [^14C]-AEA (10 µM) (ARC, MO, USA) at 37°C for 15 min (Tris-HCl, pH 9.0) and reactions were stopped with a 2:1 (v/v) mixture of chloroform/methanol. [^14C]-ethanolamine release in the aqueous phase was measured as previously reported. Mouse supernatants (50 µg) were preincubated with RG7774 (10 µM) for 15 min and added directly to the incubation medium. Purified human FAAH (1.7 µg; Cayman Chemical Company, MI, USA) was incubated with [^14C]-AEA (10 µM) (ARC, MO, USA) at 37°C for 15 min (pH 9.0), as previously described. […] for 15 min with 8 different concentrations of RG7774 (0.1-500 µM) and added directly to the incubation medium (250 µL). Control experiments was carried out in the presence of the FAAH inhibitor, URB-597 (100 nM).

P-gp [1] = molecular target: T2, P-gp (Mus musculus, UniProt P21447); assay: P-gp assay in transfected LLC-PK1 cells; assay type: in vitro ADME
T2 construct: host or cells: LLC-PK1 (porcine kidney epithelial) cells
Protocol: (§1) The P-gp assay was conducted as previously described. Briefly, transfected porcine kidney epithelial (LLC-PK1) cells expressing human or mouse P-gp were cultured on 96-well semi-permeable filter membrane plates (Millipore, Darmstadt, Germany). LLC-PK1 cells were provided by Dr A. Schinkel from The Netherlands Cancer Institute (Amsterdam, The Netherlands). Cells formed a polarized monolayer with tight junctions that acted as a barrier between apical and basolateral compartments. P-gp was expressed in the apical-facing membrane of the monolayer (tightness confirmed using Lucifer yellow). […] The effect of P-gp was measured by expressing the efflux ratio of the unidirectional A > B and B > A Papp values. The mean permeability (A > B and B > A Papp) was determined in the absence of P-gp via the addition of the selective P-gp inhibitor, zosuquidar.

P-gp [2] = molecular target: T3, P-gp (Homo sapiens, UniProt P08183); assay: P-gp assay in transfected LLC-PK1 cells; assay type: in vitro ADME
T3 construct: host or cells: LLC-PK1 (porcine kidney epithelial) cells
Protocol: as §1

T2 sequence (P21447 whole entry): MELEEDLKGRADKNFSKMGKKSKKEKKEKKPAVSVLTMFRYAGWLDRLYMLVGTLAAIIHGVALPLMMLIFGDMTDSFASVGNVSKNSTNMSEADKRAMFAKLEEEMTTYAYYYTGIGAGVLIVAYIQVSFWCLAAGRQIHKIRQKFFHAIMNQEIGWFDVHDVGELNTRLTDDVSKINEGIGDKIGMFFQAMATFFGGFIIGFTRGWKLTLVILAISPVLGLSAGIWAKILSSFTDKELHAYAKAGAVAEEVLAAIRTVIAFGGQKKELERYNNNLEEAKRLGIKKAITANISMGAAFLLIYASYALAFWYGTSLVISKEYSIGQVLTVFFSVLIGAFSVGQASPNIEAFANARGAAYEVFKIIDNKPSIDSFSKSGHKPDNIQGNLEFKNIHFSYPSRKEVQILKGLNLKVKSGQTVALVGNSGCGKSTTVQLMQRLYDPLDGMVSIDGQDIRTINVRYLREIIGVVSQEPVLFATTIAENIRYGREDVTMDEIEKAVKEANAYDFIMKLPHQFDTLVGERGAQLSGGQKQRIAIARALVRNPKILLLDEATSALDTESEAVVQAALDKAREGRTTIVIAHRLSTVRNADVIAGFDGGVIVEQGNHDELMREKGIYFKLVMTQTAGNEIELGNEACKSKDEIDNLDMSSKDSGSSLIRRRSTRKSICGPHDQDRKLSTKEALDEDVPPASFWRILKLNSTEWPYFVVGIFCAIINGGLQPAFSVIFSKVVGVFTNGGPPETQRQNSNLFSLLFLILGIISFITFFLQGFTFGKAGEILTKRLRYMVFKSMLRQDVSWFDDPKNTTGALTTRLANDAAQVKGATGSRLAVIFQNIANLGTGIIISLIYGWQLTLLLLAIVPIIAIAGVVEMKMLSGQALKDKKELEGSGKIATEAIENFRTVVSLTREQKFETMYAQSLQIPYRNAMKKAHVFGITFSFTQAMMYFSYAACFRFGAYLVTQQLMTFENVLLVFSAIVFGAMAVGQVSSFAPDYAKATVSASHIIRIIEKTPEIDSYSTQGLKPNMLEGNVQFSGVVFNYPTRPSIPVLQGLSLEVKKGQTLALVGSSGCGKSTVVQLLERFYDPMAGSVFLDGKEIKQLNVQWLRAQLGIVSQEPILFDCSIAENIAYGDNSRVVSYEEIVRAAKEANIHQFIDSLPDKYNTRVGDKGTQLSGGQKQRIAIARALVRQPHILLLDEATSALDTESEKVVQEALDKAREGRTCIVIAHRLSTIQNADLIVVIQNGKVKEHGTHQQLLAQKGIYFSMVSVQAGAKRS
Sequence of Mouse CB1R (P47746 whole entry): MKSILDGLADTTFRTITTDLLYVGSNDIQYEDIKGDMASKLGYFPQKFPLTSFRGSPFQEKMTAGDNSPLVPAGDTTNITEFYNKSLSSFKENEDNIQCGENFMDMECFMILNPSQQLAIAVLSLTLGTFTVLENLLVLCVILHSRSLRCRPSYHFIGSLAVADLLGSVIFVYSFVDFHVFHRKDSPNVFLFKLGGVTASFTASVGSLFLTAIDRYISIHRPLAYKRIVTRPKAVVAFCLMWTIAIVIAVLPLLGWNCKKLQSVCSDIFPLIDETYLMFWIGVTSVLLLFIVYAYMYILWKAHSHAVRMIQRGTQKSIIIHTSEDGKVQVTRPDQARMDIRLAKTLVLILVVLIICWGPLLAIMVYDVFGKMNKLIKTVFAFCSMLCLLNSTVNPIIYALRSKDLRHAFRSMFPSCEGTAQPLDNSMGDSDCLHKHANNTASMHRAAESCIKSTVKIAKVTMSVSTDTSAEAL
T1 sequence (O00519 whole entry): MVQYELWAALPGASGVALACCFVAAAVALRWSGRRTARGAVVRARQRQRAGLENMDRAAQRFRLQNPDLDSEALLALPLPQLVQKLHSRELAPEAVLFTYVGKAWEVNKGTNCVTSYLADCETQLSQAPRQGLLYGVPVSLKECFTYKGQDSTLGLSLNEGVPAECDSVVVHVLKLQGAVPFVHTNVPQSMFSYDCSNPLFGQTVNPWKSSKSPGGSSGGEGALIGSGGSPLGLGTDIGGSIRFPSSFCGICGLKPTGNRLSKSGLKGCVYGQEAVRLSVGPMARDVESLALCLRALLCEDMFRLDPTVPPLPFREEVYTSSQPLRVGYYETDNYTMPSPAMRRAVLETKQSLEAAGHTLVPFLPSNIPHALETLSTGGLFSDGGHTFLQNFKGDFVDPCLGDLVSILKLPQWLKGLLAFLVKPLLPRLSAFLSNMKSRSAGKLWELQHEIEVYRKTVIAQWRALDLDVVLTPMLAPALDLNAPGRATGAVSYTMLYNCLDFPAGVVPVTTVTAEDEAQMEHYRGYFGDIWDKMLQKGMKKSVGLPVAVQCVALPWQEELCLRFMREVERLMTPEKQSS
T3 sequence (P08183 whole entry): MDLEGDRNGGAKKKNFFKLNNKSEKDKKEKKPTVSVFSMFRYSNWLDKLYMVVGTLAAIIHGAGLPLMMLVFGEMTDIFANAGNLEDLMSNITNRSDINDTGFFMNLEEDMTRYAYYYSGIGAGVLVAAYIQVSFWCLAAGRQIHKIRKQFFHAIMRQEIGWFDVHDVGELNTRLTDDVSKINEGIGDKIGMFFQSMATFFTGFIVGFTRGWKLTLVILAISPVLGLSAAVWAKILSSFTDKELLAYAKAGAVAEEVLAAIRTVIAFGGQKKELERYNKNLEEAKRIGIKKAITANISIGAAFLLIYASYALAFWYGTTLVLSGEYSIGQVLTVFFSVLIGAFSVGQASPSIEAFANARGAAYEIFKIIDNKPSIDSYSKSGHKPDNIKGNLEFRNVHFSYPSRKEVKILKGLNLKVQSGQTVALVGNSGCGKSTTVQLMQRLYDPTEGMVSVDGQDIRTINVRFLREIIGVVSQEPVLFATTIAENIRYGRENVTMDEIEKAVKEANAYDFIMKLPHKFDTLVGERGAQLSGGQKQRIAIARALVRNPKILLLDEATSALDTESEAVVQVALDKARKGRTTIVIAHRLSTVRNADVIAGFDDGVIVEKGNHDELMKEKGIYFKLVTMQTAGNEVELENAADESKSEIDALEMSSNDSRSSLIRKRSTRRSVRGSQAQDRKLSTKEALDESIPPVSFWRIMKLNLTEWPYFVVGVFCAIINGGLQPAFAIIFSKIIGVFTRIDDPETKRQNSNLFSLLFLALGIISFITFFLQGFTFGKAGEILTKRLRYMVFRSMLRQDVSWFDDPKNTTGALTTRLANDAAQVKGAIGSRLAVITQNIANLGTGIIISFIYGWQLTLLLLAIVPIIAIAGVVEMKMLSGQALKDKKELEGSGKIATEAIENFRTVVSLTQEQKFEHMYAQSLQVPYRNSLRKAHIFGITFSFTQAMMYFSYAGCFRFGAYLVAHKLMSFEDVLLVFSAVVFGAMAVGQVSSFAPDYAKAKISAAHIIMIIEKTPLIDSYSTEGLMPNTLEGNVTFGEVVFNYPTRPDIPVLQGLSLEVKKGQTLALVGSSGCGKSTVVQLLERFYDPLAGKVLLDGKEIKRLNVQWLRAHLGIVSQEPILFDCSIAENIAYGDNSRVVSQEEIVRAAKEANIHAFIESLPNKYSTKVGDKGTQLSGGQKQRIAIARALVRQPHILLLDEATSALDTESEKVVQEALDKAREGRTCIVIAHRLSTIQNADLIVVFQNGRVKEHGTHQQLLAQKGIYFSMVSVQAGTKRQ

## Cn1nnnc1Cn1nnc2c(N3CC[C@H](O)C3)nc(C(C)(C)C)nc21 [RG7774, (S)-1-(5-tert-butyl-3-[(1-methyl-1H-tetrazol-5-yl)methyl]-3H-[1,2,3]triazolo[4,5-d]pyrimidin-7-yl)pyrrolidin-3-ol]
Mouse CB1R
  inhibition at 10 µM: 3.8%
laser-induced CNV
  maximum concentration of the free active epimer in plasma associated with the ED50: 12.5 nM
laser-induced CNV; S/R-enantiomer ratio of 2 assumed
  average concentration of the free active epimer in plasma associated with the ED50: 1.05 nM
Human FAAH
  inhibition at 10 µM: -5.2%
P-gp [1]
  efflux ratio at 3 h: 16.2
P-gp [2]
  efflux ratio at 3 h: 2.5
